Data: US20240034724A1, “THERAPEUTIC COMPOUNDS USEFUL FOR THE PROPHYLACTIC OR THERAPEUTIC TREATMENT OF AN HIV VIRUS INFECTION” (Gilead Sciences, Inc., priority 2022, published 2024)

Key:
[1] = test system: HIV-1 (IIIb strain); assay: Test A: Antiviral Assay in the Human MT-4 T-Lymphoblastoid Cell Line; assay type: cell-based; settings: Human immunodeficiency virus 1, MT4, 120 h; MT-4 cells infected with HIV-1 IIIb, 5 days, CellTiter-Glo, protection from virus-induced cell death
Experimental: Test A: Antiviral Assay in the Human MT-4 T-Lymphoblastoid Cell Line
(§1) For the MT-4 antiviral assay, 50 μL of 3-fold serially diluted compound in complete RPMI medium was added to each well of a 384-well plate (10 concentrations) in quadruplicate. MT-4 cells were infected with HIV-1 (IIIb strain) at a multiplicity of infection (m.o.i.) of ˜0.005 for 1 hour at 37° C. and 20 μL of virus/cell mixture (˜2,000 cells) was added to each well of the assay plate containing 50 μL of diluted compound. A positive control (1 μM azidothymidine, AZT) and a negative control (dimethyl sulfoxide, DMSO) were included in every assay plate to define 100% and 0% protection, respectively. The final DMSO concentration in the assay was 0.5%. The plates were then incubated at 37° C. for 5 days. At the end of the incubation, 30 μL of CellTiter-Glo reagent (Promega Madison, WI) was added to each well of the assay plates. Cell lysis was carried out by incubating the assay plates at room temperature for 10 minutes followed by the quantification of chemiluminescence signal using an EnVision plate reader (Perkin Elmer, Shelton, CT). Antiviral dose response data were normalized to positive and negative controls in each plate and analyzed by curve fitting after conversion of the data to % cell death to determine the half-maximal effective concentration (EC50) value, defined as the compound concentration that caused a 50% protection from cytopathic effect (CPE)-dependent virus-induced cell death.

[2] = Test B: Cytotoxicity Assay in MT-4 Cells; assay type: cell-based; settings: human, uninfected MT-4 cells, CellTiter-Glo
Experimental: as §1, with “death. Test B: Cytotoxicity Assay in MT-4 Cells Compound cytotoxicity and the corresponding half-maximal cytotoxicity concentration (CC50) values was determined using the same protocol as described in the antiviral assay (Test A) except that uninfected cells were used and the data were normalized to the 100% viability control (DMSO) wells on each plate.” for “death.”

| Compound | EC50 [1] [nM] | CC50 at 5 days [2] [µM] |
| --- | --- | --- |
| CC(C)(O)C#Cc1ccc(-c2ccc(Cl)c3c(NS(C)(=O)=O)nn(CC(F)(F)F)c23)c([C@H](Cc2cc(F)cc(F)c2)NC(=O)Cn2nc(C(F)(F)F)c3c2C(F)(F)[C@@H]2C[C@H]32)n1 [Example 1, N—((S)-1-(3-(4-chloro-3-(methylsulfonamido)-1-(2,2,2-trifluoroethyl)-1H-indazol-7-yl)-6-(3-hydroxy-3-methylbut-1-yn-1-yl)pyridin-2-yl)-2-(3,5-difluorophenyl)ethyl)-2-((3bS,4aR)-5,5-difluoro-3-(trifluoromethyl)-3b,4,4a,5-tetrahydro-1H-cyclopropa[3,4]cyclopenta[1,2-c]pyrazol-1-yl)acetamide] | 0.34 | 3.61 |
| C=C(C)C#Cc1ccc(-c2ccc(Cl)c3c(NS(C)(=O)=O)nn(CC(F)(F)F)c23)c([C@H](Cc2cc(F)cc(F)c2)NC(=O)Cn2nc(C(F)(F)F)c3c2C(F)(F)[C@@H]2C[C@H]32)n1 [Example 2, N—((S)-1-(3-(4-chloro-3-(methylsulfonamido)-1-(2,2,2-trifluoroethyl)-1H-indazol-7-yl)-6-(3-methylbut-3-en-1-yn-1-yl)pyridin-2-yl)-2-(3,5-difluorophenyl)ethyl)-2-((3bS,4aR)-5,5-difluoro-3-(trifluoromethyl)-3b,4,4a,5-tetrahydro-1H-cyclopropa[3,4]cyclopenta[1,2-c]pyrazol-1-yl)acetamide] | 18 | 8.74 |
| CC(C)C#Cc1ccc(-c2ccc(Cl)c3c(NS(C)(=O)=O)nn(CC(F)(F)F)c23)c([C@H](Cc2cc(F)cc(F)c2)NC(=O)Cn2nc(C(F)(F)F)c3c2C(F)(F)[C@@H]2C[C@H]32)n1 [Example 3, N—((S)-1-(3-(4-chloro-3-(methylsulfonamido)-1-(2,2,2-trifluoroethyl)-1H-indazol-7-yl)-6-(3-methylbut-1-yn-1-yl)pyridin-2-yl)-2-(3,5-difluorophenyl)ethyl)-2-((3bS,4aR)-5,5-difluoro-3-(trifluoromethyl)-3b,4,4a,5-tetrahydro-1H-cyclopropa[3,4]cyclopenta[1,2-c]pyrazol-1-yl)acetamide] | 21 | 7.5 |
| CN(c1nn(CC(F)(F)F)c2c(-c3ccc(C#CC(C)(C)S(C)(=O)=O)nc3[C@H](Cc3cc(F)cc(F)c3)NC(=O)Cn3nc(C(F)(F)F)c4c3C(F)(F)[C@@H]3C[C@H]43)ccc(Cl)c12)S(C)(=O)=O [Example 4, N—((S)-1-(3-(4-chloro-3-(N-methylmethylsulfonamido)-1-(2,2,2-trifluoroethyl)-1H-indazol-7-yl)-6-(3-methyl-3-(methylsulfonyl)but-1-yn-1-yl)pyridin-2-yl)-2-(3,5-difluorophenyl)ethyl)-2-((3bS,4aR)-5,5-difluoro-3-(trifluoromethyl)-3b,4,4a,5-tetrahydro-1H-cyclopropa[3,4]cyclopenta[1,2-c]pyrazol-1-yl)acetamide] | 8.3 | > 50 |
| CC(C)(C#Cc1ccc(-c2cccc3c(NS(C)(=O)=O)nn(CC(F)(F)F)c23)c([C@H](Cc2cc(F)cc(F)c2)NC(=O)Cn2nc(C(F)(F)F)c3c2C(F)(F)[C@@H]2C[C@H]32)n1)S(C)(=O)=O [Example 5, 2-((3bS,4aR)-5,5-difluoro-3-(trifluoromethyl)-3b,4,4a,5-tetrahydro-1H-cyclopropa[3,4]cyclopenta[1,2-c]pyrazol-1-yl)-N—((S)-2-(3,5-difluorophenyl)-1-(6-(3-methyl-3-(methylsulfonyl)but-1-yn-1-yl)-3-(3-(methylsulfonamido)-1-(2,2,2-trifluoroethyl)-1H-indazol-7-yl)pyridin-2-yl)ethyl)acetamide] | 0.07 | 9.48 |
| CCN(c1nn(CC(F)(F)F)c2c(-c3ccc(C#CC(C)(C)S(C)(=O)=O)nc3[C@H](Cc3cc(F)cc(F)c3)NC(=O)Cn3nc(C(F)(F)F)c4c3C(F)(F)[C@@H]3C[C@H]43)ccc(Cl)c12)S(C)(=O)=O [Example 6, N—((S)-1-(3-(4-chloro-3-(N-ethylmethylsulfonamido)-1-(2,2,2-trifluoroethyl)-1H-indazol-7-yl)-6-(3-methyl-3-(methylsulfonyl)but-1-yn-1-yl)pyridin-2-yl)-2-(3,5-difluorophenyl)ethyl)-2-((3bS,4aR)-5,5-difluoro-3-(trifluoromethyl)-3b,4,4a,5-tetrahydro-1H-cyclopropa[3,4]cyclopenta[1,2-c]pyrazol-1-yl)acetamide] | 3.3 | > 50 |
